Data reported in patent US12370192B2, “Azole-fused pyridazin-3(2H)-one derivatives” (TAKEDA PHARMACEUTICAL COMPANY LIMITED, priority 2019, dated 2025).

Assays:
human GPR139 receptor [1] = target: T1, human GPR139 receptor (Homo sapiens, UniProt Q6DWJ6); experiment: Measurement of GPR139 Activation Via Calcium Signaling (FLIPR, T-REx-CHO cells); type: cell-based; settings: T-REx-CHO cells stably expressing human GPR139, 11-point dose response, 10 μM maximum concentration, read-out: GPR139 Potency (pEC50) (converted)
T1 construct: expressed in transfected cells; host or cells: T-REx-CHO (Thermo Fisher Scientific), doxycycline-induced
T1 sequence (Q6DWJ6 1-353): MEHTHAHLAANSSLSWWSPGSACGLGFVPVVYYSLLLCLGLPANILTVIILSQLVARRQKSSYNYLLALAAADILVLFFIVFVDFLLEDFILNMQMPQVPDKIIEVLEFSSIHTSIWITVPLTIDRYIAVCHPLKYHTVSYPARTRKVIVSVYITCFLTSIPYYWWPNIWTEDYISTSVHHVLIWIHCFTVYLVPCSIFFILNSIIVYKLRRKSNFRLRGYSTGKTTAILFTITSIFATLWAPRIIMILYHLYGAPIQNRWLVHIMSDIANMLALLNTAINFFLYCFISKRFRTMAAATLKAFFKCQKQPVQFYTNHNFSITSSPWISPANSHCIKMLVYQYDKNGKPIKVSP
Method in brief: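 Calcium flux read by FLIPR for 1 min after adding compounds (11 concentrations, maximum 10 μM) to doxycycline-induced (2 μg/mL, 17 h) T-REx-CHO cells expressing human GPR139. Cells dye-loaded 40 min at 37 °C in HBSS, 1 mM HEPES pH 7.4 with probenecid; activation reported as pEC50 from four-parameter logistic fit.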

human GPR139 receptor [2] = target: T1, human GPR139 receptor; experiment: GPR139 Competition Binding (membrane-based, tritium-labeled ligand); settings: T-REx-CHO membranes with human GPR139; 6.5 nM tritium-labeled ligand; 11-point curve, 30 μM maximum concentration; read-out: GPR139 Binding Affinity (pKi) (converted)
Method in brief: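 Membranes came from doxycycline-induced T-REx-CHO cells expressing human GPR139. They were incubated 20 min at room temperature with 6.5 nM tritiated ligand and compound (11 points, top 30 μM) in HEPES pH 7.3 buffer with MgCl2/CaCl2. Filter-bound counts gave Ki by four-parameter fit, reported as pKi.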

SMILES	EC50 (human GPR139 receptor [1])	Ki (human GPR139 receptor [2])
COc1ccc([C@H](C)NC(=O)Cn2ncc3c(c(C)nn3C)c2=O)cc1 [Example 48, (S)-2-(1,3-dimethyl-4-oxo-1,4-dihydro-5H-pyrazolo[3,4-d]pyridazin-5-yl)-N-(1-(4-methoxyphenyl)ethyl)acetamide]	33.1 nM	1910 nM
Cc1nn(CC(=O)N[C@@H](C)c2ccc(C(F)(F)F)cc2)c(=O)c2c1cnn2C [Example 40, (S)-2-(1,4-dimethyl-7-oxo-1,7-dihydro-6H-pyrazolo[3,4-d]pyridazin-6-yl)-N-(1-(4-(trifluoromethyl)phenyl)ethyl)acetamide]	33.1 nM	251 nM
Cc1ccc([C@H](C)NC(=O)Cn2ncc3c(C)nn(C(C)C)c3c2=O)cc1 [Example 23]	166 nM	102 nM
Cc1ccc([C@H](C)NC(=O)Cn2ncc3c(c(C4CC4)nn3C)c2=O)cc1 [Example 38, (S)-2-(3-cyclopropyl-1-methyl-4-oxo-1,4-dihydro-5H-pyrazolo[3,4-d]pyridazin-5-yl)-N-(1-(p-tolyl)ethyl)acetamide]	55 nM	72.4 nM
CC(C)c1nn(CC(=O)N[C@@H](C)c2ccc(C(F)(F)F)cc2)c(=O)c2c1cnn2-c1ccccc1 [Example 4, (S)-2-(4-isopropyl-7-oxo-1-phenyl-1,7-dihydro-6H-pyrazolo[3,4-d]pyridazin-6-yl)-N-(1-(4-(trifluoromethyl)phenyl)ethyl)acetamide]	≥ 10000 nM	91.2 nM
Cc1ccc([C@H](C)NC(=O)Cn2nc(C)c3cnn(C)c3c2=O)c(F)c1 [Example 41, (S)-2-(1,4-dimethyl-7-oxo-1,7-dihydro-6H-pyrazolo[3,4-d]pyridazin-6-yl)-N-(1-(2-fluoro-4-methylphenyl)ethyl)acetamide]	34.7 nM	74.1 nM

Other lines, results leading:

EC50 (human GPR139 receptor [1])	Ki (human GPR139 receptor [2])	SMILES
83.2 nM	245 nM	Cc1ccc([C@H](C)NC(=O)Cn2ncc3c(c(C)nn3C3CC3)c2=O)cc1 [Example 122, (S)-2-(1-cyclopropyl-3-methyl-4-oxo-1,4-dihydro-5H-pyrazolo[3,4-d]pyridazin-5-yl)-N-(1-(p-tolyl)ethyl)acetamide]
107 nM	97.7 nM	Cc1nn(CC(=O)NC(C)c2ccc3c(c2)OCCO3)c(=O)c2c1c(C)nn2C1CC1 (stereo not drawn) [Example 105, 2-(1-cyclopropyl-3,4-dimethyl-7-oxo-1,7-dihydro-6H-pyrazolo[3,4-d]pyridazin-6-yl)-N-(1-(2,3-dihydrobenzo[b][1,4]dioxin-6-yl)ethyl)acetamide]
107 nM	309 nM	Cc1nn(C(C)C)c2cnn(CC(=O)N[C@@H](C)c3ccc(C(F)(F)F)cc3)c(=O)c12 [Example 94, (S)-2-(1-isopropyl-3-methyl-4-oxo-1,4-dihydro-5H-pyrazolo[3,4-d]pyridazin-5-yl)-N-(1-(4-(trifluoromethyl)phenyl)ethyl)acetamide]
41.7 nM	42.7 nM	Cc1nn(C2CC2)c2cnn(CC(=O)N[C@@H](C)c3ccc(F)cc3Cl)c(=O)c12 [Example 131, (S)—N-(1-(2-chloro-4-fluorophenyl)ethyl)-2-(1-cyclopropyl-3-methyl-4-oxo-1,4-dihydro-5H-pyrazolo[3,4-d]pyridazin-5-yl)acetamide]
20.4 nM	60.3 nM	Cc1ccc([C@H](C)NC(=O)Cn2ncc3c(C4CC4)nn(C)c3c2=O)cc1F [Example 151, (S)-2-(3-cyclopropyl-1-methyl-7-oxo-1,7-dihydro-6H-pyrazolo[3,4-d]pyridazin-6-yl)-N-(1-(3-fluoro-4-methylphenyl)ethyl)acetamide]
123 nM	47.9 nM	C[C@H](NC(=O)Cn1ncc2c(c(C3CC3)nn2C)c1=O)c1ccc(OC(F)(F)F)cc1 [Example 125, (S)-2-(3-cyclopropyl-1-methyl-4-oxo-1,4-dihydro-5H-pyrazolo[3,4-d]pyridazin-5-yl)-N-(1-(4-(trifluoromethoxy)phenyl)ethyl)acetamide]
